# Tests used:
# [1] = test system: H929 human cancer cell lines; test: Cellular viability / proliferation (Cell TiterGlo, 72 h); type: cell-based; details: Homo sapiens, NCI-H929, 72 h, read-out: GI50 on cellular proliferation of H929 human cancer cell lines, H929 cells, 72 h, Cell TiterGlo, 10% FBS
# Summary of the method: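 Compounds were added as 2-fold serial dilutions from 50 μM (final DMSO <1%) to H929 cells seeded 1,000 per well in 10% FBS medium one day earlier.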
# Mcl-1 = Mcl-1 (Homo sapiens (Human), UniProt Q07820); test: Fluorescence polarization anisotropy (FPA) competition assay, FITC-Bak or FITC-Bim BH3 peptide; type: binding; details: read-out: Ki for Inhibition of Mcl-1 by FPA assay
# Chain of Mcl-1 (Q07820 172-327): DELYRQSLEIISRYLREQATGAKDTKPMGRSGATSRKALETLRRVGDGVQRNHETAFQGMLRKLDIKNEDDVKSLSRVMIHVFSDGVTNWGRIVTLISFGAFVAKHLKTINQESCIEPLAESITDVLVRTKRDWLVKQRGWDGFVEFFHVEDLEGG
Structure (SMILES),GI50 [1],Ki (Mcl-1)
"Cc1cc(OCCCc2c3n(c4c(-c5c(C)nc(CN6CCN(C)CC6)nc5C)c(Cl)ccc24)[C@H](C)CN(c2cn(C)c4ccc(C(=O)O)cc24)C3=O)cc(C)c1Cl [Example 396, (R)-3-(7-Chloro-10-(3-(4-chloro-3,5-dimethylphenoxy)propyl)-6-(4,6-dimethyl-2-((4-methylpiperazin-1-yl)methyl)pyrimidin-5-yl)-4-methyl-1-oxo-3,4-dihydropyrazino[1,2-a]indol-2(1H)-yl)-1-methyl-1H-indole-5-carboxylic acid]",< 200 nM,1.8 nM
"Cc1cc(N2CCCn3c(c(CCCOc4cc(C)c(Cl)c(C)c4)c4ccc(Cl)c(-c5c(C)ncnc5C)c43)C2=O)c2c(c1)cc(C(=O)O)n2C [Example 399, 7-(8-Chloro-11-(3-(4-chloro-3,5-dimethylphenoxy)propyl)-7-(4,6-dimethylpyrimidin-5-yl)-1-oxo-4,5-dihydro-1H-[1,4]diazepino[1,2-a]indol-2(3H)-yl)-1,5-dimethyl-1H-indole-2-carboxylic acid]",210 nM,2.4 nM
"Cc1cc(OCCCc2c3n(c4c(-c5c(C)ncnc5C)c(Cl)ccc24)CCCN(c2cccc4c(C(=O)O)cn(C)c24)C3=O)cc(C)c1Cl [Example 119, 7-[8-chloro-11-[3-(4-chloro-3,5-dimethyl-phenoxy)propyl]-7-(4,6-dimethylpyrimidin-5-yl)-1-oxo-4,5-dihydro-3H-[1,4]diazepino[1,2-a]indol-2-yl]-1-methyl-indole-3-carboxylic acid]",2900 nM,< 1 nM
"Cc1cc(OCCCc2c3n(c4c(-c5c(C)nn(C)c5C)c(Cl)ccc24)[C@H](C)CN(c2cc(Cl)cc4cc(C(=O)O)oc24)C3=O)cc(C)c1Cl [Example 232, (R)-5Chloro-7-(7-chloro-10-(3-(4-chloro-3,5-dimethylphenoxy)propyl)-4-methyl-1-oxo-6-(1,3,5-trimethyl-1H-pyrazol-4-yl)-3,4-dihydropyrazino[1,2-a]indol-2(1H)-yl)benzofuran-2-carboxylic acid]",4000 nM,< 1 nM
"Cc1cc(OCCCc2c3n(c4c(-c5c(C)nn(C)c5C)c(Cl)ccc24)[C@H](C)CN(c2cn(C)c4ccc(-c5nnco5)cc24)C3=O)cc(C)c1Cl [Example 346, (R)-7-Chloro-10-(3-(4-chloro-3,5-dimethylphenoxy)propyl)-4-methyl-2-(1-methyl-5-(1,3,4-oxadiazol-2-yl)-1H-indol-3-yl)-6-(1,3,5-trimethyl-1H-pyrazol-4-yl)-3,4-dihydropyrazino[1,2-a]indol-1(2H)-one]",1600 nM,5.1 nM
"Cc1cc(OCCCc2c3n(c4c(-c5c(C)nn(C)c5C)c(Cl)ccc24)[C@H](C)CN(c2cc(C(=O)O)c4ncccc4c2)C3=O)cc(C)c1Cl [Example 138, (R)-6-(7-chloro-10-(3-(4-chloro-3,5-dimethylphenoxy)propyl)-4-methyl-1-oxo-6-(1,3,5-trimethyl-1H-pyrazol-4-yl)-3,4-dihydropyrazino[1,2-a]indol-2(1H)-yl)quinoline-8-carboxylic acid]",4800 nM,2.2 nM
"Cc1ccnc(Cn2c(C(=O)O)cc3cc(OC(F)(F)F)cc(N4C[C@@H](C)n5c(c(CCCOc6cc(C)c(Cl)c(C)c6)c6ccc(Cl)c(-c7c(C)nn(C)c7C)c65)C4=O)c32)c1 [Example 474, (R)-7-(7-Chloro-10-(3-(4-chloro-3,5-dimethylphenoxy)propyl)-4-methyl-1-oxo-6-(1,3,5-trimethyl-1H-pyrazol-4-yl)-3,4-dihydropyrazino[1,2-a]indol-2(1H)-yl)-1-((4-methylpyridin-2-yl)methyl)-5-(trifluoromethoxy)-1H-indole-2-carboxylic acid]",1200 nM,17 nM

# Source: patent US11596639B2, “Substituted indole Mcl-1 inhibitors” (Vanderbilt University, priority 2016, dated 2023)
